In the supplement of paper PMC10307832:

Columns and labels:
Assay in all cases: relative viability (nuclei count vs DMSO), 5 days (fraction); higher = more cells survive
NCI-H727 = system: NCI-H727
Method in brief: (§1)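 Relative viability divides the nuclei count in treated wells by that in vehicle wells. Lung cancer cell lines were seeded in 1536-well plates, dosed by pin tool the next day, and fixed and stained after 5 days in one step with final 0.05% Triton X-100, 1% formaldehyde and 1 ug/ml Hoechst. Dosing was a single drug or a fixed anchor-drug dose plus five library-drug doses (not always all listed) in √10 steps, and values are medians of duplicate plates imaged at 4×.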

PC-14 = system: PC-14
Method in brief: as §1

NCI-H1355 = system: NCI-H1355
Method in brief: as §1

NCI-H1563 = system: NCI-H1563
Method in brief: as §1

LCLC-103H = system: LCLC-103H
Method in brief: as §1

LXF-289 = system: LXF-289
Method in brief: as §1

NCI-H2170 = system: NCI-H2170
Method in brief: as §1

NCI-H661 = system: NCI-H661
Method in brief: as §1

NCI-H596 = system: NCI-H596
Method in brief: as §1

NCI-H441 = system: NCI-H441
Method in brief: as §1

NCI-H650 = system: NCI-H650
Method in brief: as §1

RERF-LC-KJ = system: RERF-LC-KJ
Method in brief: as §1

NCI-H1651 = system: NCI-H1651
Method in brief: as §1

NCI-H1755 = system: NCI-H1755
Method in brief: as §1

NCI-H460 = system: NCI-H460
Method in brief: as §1

SK-MES-1 = system: SK-MES-1
Method in brief: as §1

NCI-H2347 = system: NCI-H2347
Method in brief: as §1

NCI-H3122 = system: NCI-H3122
Method in brief: as §1

NCI-H520 = system: NCI-H520
Method in brief: as §1

NCI-H1915 = system: NCI-H1915
Method in brief: as §1

NCI-H1792 = system: NCI-H1792
Method in brief: as §1

NCI-H322M = system: NCI-H322M
Method in brief: as §1

For `NC(=O)Nc1cc(-c2cccc(F)c2)sc1C(=O)N[C@H]1CCCNC1` [AZD7762] + CS(=O)(=O)N1CCN(Cc2cc3nc(-c4cccc5[nH]ncc45)nc(N4CCOCC4)c3s2)CC1 [Pictilisib] (partner 1 µM), the relative viability (NCI-H727; first compound 0.01 µM) was 0.429, the relative viability (NCI-H727; first compound 0.03162 µM) was 0.346 and the relative viability (NCI-H727; first compound 0.1 µM) was 0.321. For the same molecule, the relative viability (NCI-H727; first compound 0.3162 µM) was 0.243, the relative viability (NCI-H727; first compound 1 µM) was 0.269 and the relative viability (PC-14; first compound 0.01 µM) was 0.763. The relative viability (PC-14; first compound 0.03162 µM) was 0.795, the relative viability (PC-14; first compound 0.1 µM) was 0.67 and the relative viability (PC-14; first compound 0.3162 µM) was 0.474. It also gave a relative viability (PC-14; first compound 1 µM) of 0.309, a relative viability (NCI-H1355; first compound 0.01 µM) of 0.405 and a relative viability (NCI-H1355; first compound 0.03162 µM) of 0.428. The relative viability (NCI-H1355; first compound 0.1 µM) was 0.44, the relative viability (NCI-H1355; first compound 0.3162 µM) was 0.445 and the relative viability (NCI-H1355; first compound 1 µM) was 0.391. It also gave a relative viability (NCI-H1563; first compound 0.01 µM) of 0.648, a relative viability (NCI-H1563; first compound 0.03162 µM) of 0.629 and a relative viability (NCI-H1563; first compound 0.1 µM) of 0.539. For the same molecule, the relative viability (NCI-H1563; first compound 0.3162 µM) was 0.617, the relative viability (NCI-H1563; first compound 1 µM) was 0.623 and the relative viability (LCLC-103H; first compound 0.01 µM) was 0.659. For the same molecule, the relative viability (LCLC-103H; first compound 0.03162 µM) was 0.609, the relative viability (LCLC-103H; first compound 0.1 µM) was 0.574 and the relative viability (LCLC-103H; first compound 0.3162 µM) was 0.629. It also gave a relative viability (LCLC-103H; first compound 1 µM) of 0.514, a relative viability (LXF-289; first compound 0.01 µM) of 0.754 and a relative viability (LXF-289; first compound 0.03162 µM) of 0.875. The relative viability (LXF-289; first compound 0.1 µM) was 0.809, the relative viability (LXF-289; first compound 0.3162 µM) was 0.855 and the relative viability (LXF-289; first compound 1 µM) was 0.813. For the same molecule, the relative viability (NCI-H2170; first compound 0.01 µM) was 0.322, the relative viability (NCI-H2170; first compound 0.03162 µM) was 0.338 and the relative viability (NCI-H2170; first compound 0.1 µM) was 0.326. It also gave a relative viability (NCI-H2170; first compound 0.3162 µM) of 0.292, a relative viability (NCI-H2170; first compound 1 µM) of 0.247 and a relative viability (NCI-H661; first compound 0.01 µM) of 0.41. It also gave a relative viability (NCI-H661; first compound 0.03162 µM) of 0.406, a relative viability (NCI-H661; first compound 0.1 µM) of 0.356 and a relative viability (NCI-H661; first compound 0.3162 µM) of 0.316. It also gave a relative viability (NCI-H661; first compound 1 µM) of 0.312, a relative viability (NCI-H596; first compound 0.01 µM) of 0.405 and a relative viability (NCI-H596; first compound 0.03162 µM) of 0.411. The relative viability (NCI-H596; first compound 0.1 µM) was 0.487, the relative viability (NCI-H596; first compound 0.3162 µM) was 0.454 and the relative viability (NCI-H596; first compound 1 µM) was 0.389. The relative viability (NCI-H441; first compound 0.01 µM) was 0.494, the relative viability (NCI-H441; first compound 0.03162 µM) was 0.594 and the relative viability (NCI-H441; first compound 0.1 µM) was 0.7. It also gave a relative viability (NCI-H441; first compound 0.3162 µM) of 0.556, a relative viability (NCI-H441; first compound 1 µM) of 0.555 and a relative viability (NCI-H650; first compound 0.01 µM) of 0.906. For the same molecule, the relative viability (NCI-H650; first compound 0.03162 µM) was 0.854, the relative viability (NCI-H650; first compound 0.1 µM) was 0.855 and the relative viability (NCI-H650; first compound 0.3162 µM) was 1. It also gave a relative viability (NCI-H650; first compound 1 µM) of 0.839, a relative viability (RERF-LC-KJ; first compound 0.01 µM) of 0.521 and a relative viability (RERF-LC-KJ; first compound 0.03162 µM) of 0.616. It also gave a relative viability (RERF-LC-KJ; first compound 0.1 µM) of 0.521, a relative viability (RERF-LC-KJ; first compound 0.3162 µM) of 0.6 and a relative viability (RERF-LC-KJ; first compound 1 µM) of 0.431. The relative viability (NCI-H1651; first compound 0.01 µM) was 0.755, the relative viability (NCI-H1651; first compound 0.03162 µM) was 0.566 and the relative viability (NCI-H1651; first compound 0.1 µM) was 0.556. It also gave a relative viability (NCI-H1651; first compound 0.3162 µM) of 0.457, a relative viability (NCI-H1651; first compound 1 µM) of 0.226 and a relative viability (NCI-H1755; first compound 0.01 µM) of 0.471. The relative viability (NCI-H1755; first compound 0.03162 µM) was 0.469, the relative viability (NCI-H1755; first compound 0.1 µM) was 0.406 and the relative viability (NCI-H1755; first compound 0.3162 µM) was 0.397. The relative viability (NCI-H1755; first compound 1 µM) was 0.241, the relative viability (NCI-H460; first compound 0.01 µM) was 0.356 and the relative viability (NCI-H460; first compound 0.03162 µM) was 0.382. It also gave a relative viability (NCI-H460; first compound 0.1 µM) of 0.417, a relative viability (NCI-H460; first compound 0.3162 µM) of 0.342 and a relative viability (NCI-H460; first compound 1 µM) of 0.175. For the same molecule, the relative viability (SK-MES-1; first compound 0.01 µM) was 0.353, the relative viability (SK-MES-1; first compound 0.03162 µM) was 0.322 and the relative viability (SK-MES-1; first compound 0.1 µM) was 0.358. The relative viability (SK-MES-1; first compound 0.3162 µM) was 0.331, the relative viability (SK-MES-1; first compound 1 µM) was 0.25 and the relative viability (NCI-H2347; first compound 0.01 µM) was 0.598. It also gave a relative viability (NCI-H2347; first compound 0.03162 µM) of 0.721, a relative viability (NCI-H2347; first compound 0.1 µM) of 0.623 and a relative viability (NCI-H2347; first compound 0.3162 µM) of 0.788. It also gave a relative viability (NCI-H2347; first compound 1 µM) of 0.292, a relative viability (NCI-H3122; first compound 0.01 µM) of 0.623 and a relative viability (NCI-H3122; first compound 0.03162 µM) of 0.646. It also gave a relative viability (NCI-H3122; first compound 0.1 µM) of 0.638, a relative viability (NCI-H3122; first compound 0.3162 µM) of 0.333 and a relative viability (NCI-H3122; first compound 1 µM) of 0.332. It also gave a relative viability (NCI-H520; first compound 0.01 µM) of 0.328, a relative viability (NCI-H520; first compound 0.03162 µM) of 0.28 and a relative viability (NCI-H520; first compound 0.1 µM) of 0.253. It also gave a relative viability (NCI-H520; first compound 0.3162 µM) of 0.216, a relative viability (NCI-H520; first compound 1 µM) of 0.219 and a relative viability (NCI-H1915; first compound 0.01 µM) of 0.931. For the same molecule, the relative viability (NCI-H1915; first compound 0.03162 µM) was 0.96, the relative viability (NCI-H1915; first compound 0.1 µM) was 1.02 and the relative viability (NCI-H1915; first compound 0.3162 µM) was 0.918. The relative viability (NCI-H1915; first compound 1 µM) was 0.924, the relative viability (NCI-H1792; first compound 0.01 µM) was 0.323 and the relative viability (NCI-H1792; first compound 0.03162 µM) was 0.328. It also gave a relative viability (NCI-H1792; first compound 0.1 µM) of 0.311, a relative viability (NCI-H1792; first compound 0.3162 µM) of 0.377 and a relative viability (NCI-H1792; first compound 1 µM) of 0.431. For the same molecule, the relative viability (NCI-H322M; first compound 0.01 µM) was 0.484, the relative viability (NCI-H322M; first compound 0.03162 µM) was 0.552 and the relative viability (NCI-H322M; first compound 0.1 µM) was 0.502. For the same molecule, the relative viability (NCI-H322M; first compound 0.3162 µM) was 0.5 and the relative viability (NCI-H322M; first compound 1 µM) was 0.426.
